Results taken from patent US10294234B2, “HIV inhibitor compounds” (priority 2017, dated 2019).

test system: HIV-1 (IIIB) in MT-4 cells; test: MT-4 HIV assay; format: cell-based; settings: Human immunodeficiency virus 1, MT4, 120 h
Procedure: Compounds were tested in a high-throughput 384-well assay format for their ability to inhibit the replication of HIV-1 (IIIB) in MT-4 cells. Compounds were serially diluted (1:3) in DMSO on 384-well polypropylene plates and further diluted 200-fold into complete RPMI media (10% FBS, 1% P/S) using the Biotek Micro Flow and Agilent ECHO acoustic dispenser. Each plate contained up to 8 test compounds, with negative (No Drug Control) and 5 uM AZT positive controls. MT-4 cells were pre-infected with 10 uL of either RPMI (mock-infected) or a fresh 1:250 dilution of an HIV-1 (IIIB) concentrated virus stock. Infected and uninfected MT-4 cells were further diluted in complete RPMI media and added to each plate using a Micro Flow dispenser. After 5 days incubation in a humidified and temperature controlled incubator (37° C.), Cell Titer Glo (Promega) was added to the assay plates to quantify the amount of luciferase.

Which EC50 does the source give for `COC(=O)N[C@H](C(=O)N[C@@H](Cc1ccc(C#Cc2ccc(N3CC4(C)CN(C5COC5)CC(C)(C3)C4=O)nc2)cc1)[C@@H](O)CN(Cc1c(F)cc(-c2cnn(C(F)F)c2)cc1F)NC(=O)[C@@H](NC(=O)OC)C(C)(C)C(F)(F)F)C(C)(C)C(F)(F)F` [Example 62, Methyl ((5S,8S,9S,14S)-11-(4-(1-(difluoromethyl)-1H-pyrazol-4-yl)-2,6-difluorobenzyl)-8-(4-((6-(1,5-dimethyl-7-(oxetan-3-yl)-9-oxo-3,7-diazabicyclo[3.3.1]nonan-3-yl)pyridin-3-yl)ethynyl)benzyl)-16,16,16-trifluoro-9-hydroxy-15,15-dimethyl-3,6,13-trioxo-5-(1,1,1-trifluoro-2-methylpropan-2-yl)-2-oxa-4,7,11,12-tetraazahexadecan-14-yl)carbamate] here?
The EC50 was 8.83 nM.

How did the EC50 turn out when `COC(=O)N[C@H](C(=O)N[C@@H](Cc1ccc(C#Cc2ccc(N3CC4CC(C3)CN(C3COC3)C4)nc2)cc1)[C@@H](O)CN(Cc1c(F)cc(-c2cnn(C(F)F)c2)cc1F)NC(=O)[C@@H](NC(=O)OC)C(C)(C)C(F)(F)F)C(C)(C)C(F)(F)F` [Example 65, Methyl ((5S,8S,9S,14S)-11-(4-(1-(difluoromethyl)-1H-pyrazol-4-yl)-2,6-difluorobenzyl)-16,16,16-trifluoro-9-hydroxy-15,15-dimethyl-8-(4-((6-(7-(oxetan-3-yl)-3,7-diazabicyclo[3.3.1]nonan-3-yl)pyridin-3-yl)ethynyl)benzyl)-3,6,13-trioxo-5-(1,1,1-trifluoro-2-methylpropan-2-yl)-2-oxa-4,7,11,12-tetraazahexadecan-14-yl)carbamate] was run?
Its EC50 is 7.7 nM.

same assay, conditions: Human immunodeficiency virus 1, MT4, 120 h; HIV-1 (IIIB), MT-4 cells, 5 days, Cell Titer Glo; read-out: EC50

For `COC(=O)N[C@H](C(=O)N[C@@H](Cc1ccc(C#Cc2ccc(N3CC4CCC(C3)N4C(=O)[C@@H]3CCCO3)nc2)cc1)[C@@H](O)CN(Cc1c(F)cc(-c2cnc(F)c(F)c2)cc1F)NC(=O)[C@@H](NC(=O)OC)C(C)(C)C)C(C)(C)C` [Example 64, Methyl ((5S,8S,9S,14S)-5-(tert-butyl)-11-(4-(5,6-difluoropyridin-3-yl)-2,6-difluorobenzyl)-9-hydroxy-15,15-dimethyl-3,6,13-trioxo-8-(4-((6-(8-((S)-tetrahydrofuran-2-carbonyl)-3,8-diazabicyclo[3.2.1]octan-3-yl)pyridin-3-yl)ethynyl)benzyl)-2-oxa-4,7,11,12-tetraazahexadecan-14-yl)carbamate], which EC50 is on record?
Its EC50 is 5.4 nM.

`COC(=O)N[C@H](C(=O)N[C@@H](Cc1ccc(C#Cc2ccc(N3CC4CC(CN(c5ccccn5)C4)C3)nc2)cc1)[C@@H](O)CN(Cc1c(F)cc(-c2cnn(C(F)F)c2)cc1F)NC(=O)[C@@H](NC(=O)OC)C(C)(C)C(F)(F)F)C(C)(C)C(F)(F)F` [Example 66, Methyl ((5S,8S,9S,14S)-11-(4-(1-(difluoromethyl)-1H-pyrazol-4-yl)-2,6-difluorobenzyl)-16,16,16-trifluoro-9-hydroxy-15,15-dimethyl-3,6,13-trioxo-8-(4-((6-(7-(pyridin-2-yl)-3,7-diazabicyclo[3.3.1]nonan-3-yl)pyridin-3-yl)ethynyl)benzyl)-5-(1,1,1-trifluoro-2-methylpropan-2-yl)-2-oxa-4,7,11,12-tetraazahexadecan-14-yl)carbamate] was tested. Which EC50 did it give?
Its EC50 is 14.5 nM.

With `COC(=O)N[C@H](C(=O)NN(Cc1c(F)cc(-c2nnc(C3CC3)s2)cc1F)C[C@H](O)[C@H](Cc1ccc(C#Cc2ccc(N3CC4CCC(C3)N4C3COC3)nc2)cc1)NC(=O)[C@@H](NC(=O)OC)C(C)(C)C(F)(F)F)C(C)(C)C` [Example 76, Methyl ((5S,8S,9S,14S)-11-(4-(5-cyclopropyl-1,3,4-thiadiazol-2-yl)-2,6-difluorobenzyl)-9-hydroxy-15,15-dimethyl-8-(4-((6-(8-(oxetan-3-yl)-3,8-diazabicyclo[3.2.1]octan-3-yl)pyridin-3-yl)ethynyl)benzyl)-3,6,13-trioxo-5-(1,1,1-trifluoro-2-methylpropan-2-yl)-2-oxa-4,7,11,12-tetraazahexadecan-14-yl)carbamate] as the compound, how does the EC50 read?
Its EC50 is 3.53 nM.

How did the EC50 turn out when `COC(=O)N[C@H](C(=O)NN(Cc1c(F)cc(-c2cnn(C(F)F)c2)cc1F)C[C@H](O)[C@H](Cc1ccc(C#Cc2ccc(N3CC4CCC(C3)N4C3COC3)nc2)cc1)NC(=O)[C@@H](NC(=O)OC)C(C)(C)C(F)(F)F)C(C)(C)CF` [Example 80, Methyl ((5S,8S,9S,14S)-11-(4-(1-(difluoromethyl)-1H-pyrazol-4-yl)-2,6-difluorobenzyl)-16-fluoro-9-hydroxy-15,15-dimethyl-8-(4-((6-(8-(oxetan-3-yl)-3,8-diazabicyclo [3.2.1]octan-3-yl)pyridin-3-yl)ethynyl)benzyl)-3,6,13-trioxo-5-(1,1,1-trifluoro-2-methylpropan-2-yl)-2-oxa-4,7,11,12-tetraazahexadecan-14-yl)carbamate] was run?
Its EC50 is 3.13 nM.

How did the EC50 turn out when `COC(=O)N[C@H](C(=O)N[C@@H](Cc1ccc(C#Cc2ccc(N3CC4CCC(C3)N4C3COC3)nc2)cc1)[C@@H](O)CN(Cc1c(F)cc(C2COC2)cc1F)NC(=O)[C@@H](NC(=O)OC)C(C)(C)C(F)(F)F)C(C)(C)C(F)(F)F` [Example 83, Methyl ((5S,8S,9S,14S)-11-(2,6-difluoro-4-(oxetan-3-yl)benzyl)-16,16,16-trifluoro-9-hydroxy-15,15-dimethyl-8-(4-((6-(8-(oxetan-3-yl)-3,8-diazabicyclo[3.2.1]octan-3-yl)pyridin-3-yl)ethynyl)benzyl)-3,6,13-trioxo-5-(1,1,1-trifluoro-2-methylpropan-2-yl)-2-oxa-4,7,11,12-tetraazahexadecan-14-yl)carbamate] was run?
The EC50 was 17.2 nM.

With `COC(=O)N[C@H](C(=O)N[C@@H](Cc1ccc(C#Cc2ccc(N3CC4CCC(C3)N4C3COC3)nc2)cc1)[C@@H](O)CN(Cc1c(F)cc(-c2ccccn2)cc1F)NC(=O)[C@@H](NC(=O)OC)C(C)(C)C)C(C)(C)C` [Example 84, Methyl ((5S,8S,9S,14S)-5-(tert-butyl)-11-(2,6-difluoro-4-(pyridin-2-yl)benzyl)-9-hydroxy-15,15-dimethyl-8-(4-((6-(8-(oxetan-3-yl)-3,8-diazabicyclo[3.2.1]octan-3-yl)pyridin-3-yl)ethynyl)benzyl)-3,6,13-trioxo-2-oxa-4,7,11,12-tetraazahexadecan-14-yl)carbamate] as the compound, how does the EC50 read?
Its EC50 is 3.23 nM.

`COC(=O)N[C@H](C(=O)NN(Cc1c(F)cc(-c2ccn(C3CC3)n2)cc1F)C[C@H](O)[C@H](Cc1ccc(C#Cc2ccc(N3CCN(C4COC4)CC3)nc2)cc1)NC(=O)[C@@H](NC(=O)OC)C(C)(C)C(F)(F)F)C(C)(C)C` [Example 91, Methyl ((5S,8S,9S,14S)-11-(4-(1-cyclopropyl-1H-pyrazol-3-yl)-2,6-difluorobenzyl)-9-hydroxy-15,15-dimethyl-8-(4-((6-(4-(oxetan-3-yl)piperazin-1-yl)pyridin-3-yl)ethynyl)benzyl)-3,6,13-trioxo-5-(1,1,1-trifluoro-2-methylpropan-2-yl)-2-oxa-4,7,11,12-tetraazahexadecan-14-yl)carbamate] was tested. Which EC50 did it give?
The EC50 was 3.69 nM.

`COC(=O)N[C@H](C(=O)N[C@@H](Cc1ccc(C#Cc2ccc(N3CCN(C4COC4)CC3)nc2)cc1)[C@@H](O)CN(Cc1c(F)cc(-c2ccn(C3CC3)n2)cc1F)NC(=O)[C@@H](NC(=O)OC)C(C)(C)C(F)(F)F)C(C)(C)C(F)(F)F` [Example 92, Methyl ((5S,8S,9S,14S)-11-(4-(1-cyclopropyl-1H-pyrazol-3-yl)-2,6-difluorobenzyl)-16,16,16-trifluoro-9-hydroxy-15,15-dimethyl-8-(4-((6-(4-(oxetan-3-yl)piperazin-1-yl)pyridin-3-yl)ethynyl)benzyl)-3,6,13-trioxo-5-(1,1,1-trifluoro-2-methylpropan-2-yl)-2-oxa-4,7,11,12-tetraazahexadecan-14-yl)carbamate] was tested. Which EC50 did it give?
Its EC50 is 3.72 nM.

How did the EC50 turn out when `COC(=O)N[C@H](C(=O)NN(Cc1c(F)cc(-c2ncccn2)cc1F)C[C@H](O)[C@H](Cc1ccc(C#Cc2ccc(N3CCN(C4COC4)CC3)nc2)cc1)NC(=O)[C@@H](NC(=O)OC)C(C)(C)C(F)(F)F)C(C)(C)C` [Example 94, methyl ((5S,8S,9S,14S)-11-(2,6-difluoro-4-(pyrimidin-2-yl)benzyl)-9-hydroxy-15,15-dimethyl-8-(4-((6-(4-(oxetan-3-yl)piperazin-1-yl)pyridin-3-yl)ethynyl)benzyl)-3,6,13-trioxo-5-(1,1,1-trifluoro-2-methylpropan-2-yl)-2-oxa-4,7,11,12-tetraazahexadecan-14-yl)carbamate] was run?
Its EC50 is 2.57 nM.

Which EC50 does the source give for `COC(=O)N[C@H](C(=O)NN(Cc1c(F)cc(-c2ncccn2)cc1F)C[C@H](O)[C@H](Cc1ccc(C#Cc2ccc(N3CC4CCC(C3)N4C3COC3)nc2)cc1)NC(=O)[C@@H](NC(=O)OC)C(C)(C)C(F)(F)F)C(C)(C)C` [Example 96, Methyl ((5S,8S,9S,14S)-11-(2,6-difluoro-4-(pyrimidin-2-yl)benzyl)-9-hydroxy-15,15-dimethyl-8-(4-((6-(8-(oxetan-3-yl)-3,8-diazabicyclo[3.2.1]octan-3-yl)pyridin-3-yl)ethynyl)benzyl)-3,6,13-trioxo-5-(1,1,1-trifluoro-2-methylpropan-2-yl)-2-oxa-4,7,11,12-tetraazahexadecan-14-yl)carbamate] here?
Its EC50 is 2.33 nM.
